Results as given in patent US20230102554A1 (GB002, INC., priority 2019, published 2023).

Columns and labels:
[1] = biological target: T1, Human PDGFRα, cytoplasmic domain (GST-PDGFRα) (Homo sapiens, UniProt P16234); assay: Human PDGFRα biochemical inhibition assay (off-chip Mobility Shift Assay)
T1 construct: made in house

[2] = biological target: T2, Human PDGFRβ, cytoplasmic domain (GST-PDGFRβ) (Homo sapiens, UniProt P09619); assay: Human PDGFRβ biochemical inhibition assay (off-chip Mobility Shift Assay)
T2 construct: made in house
Outline: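 GST-tagged cytoplasmic domain (aa 557-1106) from baculovirus was incubated 1 h at room temperature with compound, CSKtide, ATP at Km and Mg²⁺ in HEPES buffer, pH 7.5. Phosphorylated and unphosphorylated peptide were separated by off-chip mobility shift, and the product ratio P/(P+S) gave percent inhibition.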

T2 sequence (P09619 with tags, fused parts or gaps): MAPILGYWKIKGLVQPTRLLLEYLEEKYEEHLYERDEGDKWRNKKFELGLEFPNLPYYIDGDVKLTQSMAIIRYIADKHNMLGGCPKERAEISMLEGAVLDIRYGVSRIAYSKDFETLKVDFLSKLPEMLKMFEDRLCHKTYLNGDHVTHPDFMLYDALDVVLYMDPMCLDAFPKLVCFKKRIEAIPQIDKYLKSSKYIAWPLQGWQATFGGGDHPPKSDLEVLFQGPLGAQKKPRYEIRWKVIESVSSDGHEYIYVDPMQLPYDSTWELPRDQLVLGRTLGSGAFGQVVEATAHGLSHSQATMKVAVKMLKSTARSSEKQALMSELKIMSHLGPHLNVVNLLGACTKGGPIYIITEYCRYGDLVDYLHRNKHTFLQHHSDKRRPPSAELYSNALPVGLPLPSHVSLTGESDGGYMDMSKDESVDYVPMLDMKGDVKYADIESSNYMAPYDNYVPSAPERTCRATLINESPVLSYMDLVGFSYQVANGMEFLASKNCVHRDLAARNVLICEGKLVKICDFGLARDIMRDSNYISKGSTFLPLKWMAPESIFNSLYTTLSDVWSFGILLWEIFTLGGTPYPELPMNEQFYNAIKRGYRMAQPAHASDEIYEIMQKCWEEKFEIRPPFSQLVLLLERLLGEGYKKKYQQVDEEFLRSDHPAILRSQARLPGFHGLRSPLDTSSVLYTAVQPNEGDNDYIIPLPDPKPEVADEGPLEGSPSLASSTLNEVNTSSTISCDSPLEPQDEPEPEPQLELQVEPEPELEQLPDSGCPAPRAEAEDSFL
T1 sequence (P16234 550-1089 T674I): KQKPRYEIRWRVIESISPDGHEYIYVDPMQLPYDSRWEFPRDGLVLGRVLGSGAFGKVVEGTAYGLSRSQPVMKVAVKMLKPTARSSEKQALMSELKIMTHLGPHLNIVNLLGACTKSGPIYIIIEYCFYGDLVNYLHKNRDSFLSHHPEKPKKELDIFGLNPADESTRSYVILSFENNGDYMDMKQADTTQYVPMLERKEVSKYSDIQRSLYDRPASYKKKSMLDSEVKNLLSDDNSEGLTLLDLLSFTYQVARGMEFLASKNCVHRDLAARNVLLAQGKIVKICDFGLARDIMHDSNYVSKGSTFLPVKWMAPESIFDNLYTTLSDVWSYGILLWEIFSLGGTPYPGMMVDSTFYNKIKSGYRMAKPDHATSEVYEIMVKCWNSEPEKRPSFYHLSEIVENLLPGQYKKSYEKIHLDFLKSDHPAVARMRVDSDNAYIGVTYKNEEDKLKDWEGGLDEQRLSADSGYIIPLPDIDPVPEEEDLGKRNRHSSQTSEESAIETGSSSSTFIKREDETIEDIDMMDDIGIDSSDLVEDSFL

| IC50 [1] | IC50 [2] | SMILES |
| --- | --- | --- |
| < 0.3 µM | < 0.3 µM | CCn1cc2ncc(N[C@@H](C)c3cccc(NC(=O)c4ccc(CN5CC(F)C5)c(C)c4)c3)nc2n1 [Compound 497, (S)-N-(3-(1-((2-ethyl-2H-pyrazolo[3,4-b]pyrazin-6-yl)amino)ethyl)phenyl)-4-((3-fluoroazetidin-1-yl)methyl)-3-methylbenzamide] |
| < 0.3 µM | < 0.3 µM | CCn1cc2ncc(N[C@@H](C)c3cc(NC(=O)Cc4cc(C)c(C)cn4)ccc3C)nc2n1 [Compound 694, (S)-2-(4,5-dimethylpyridin-2-yl)-N-(3-(1-((2-ethyl-2H-pyrazolo[3,4-b]pyrazin-6-yl)amino)ethyl)-4-methylphenyl) acetamide] |
| < 0.3 µM | < 0.3 µM | CCn1cc2ncc(N[C@@H](C)c3cc(NC(=O)c4cc(C)c(CN5CC[C@@H](O)C5)c(F)c4)ccc3C)nc2n1 [Compound 527, N-(3-((S)-1-((2-ethyl-2H-pvrazolo[3,4-b]pyrazin-6-yl)amino)ethyl)-4-methylphenyl)-3-fluoro-4-(((R)-3-hydroxypyrrolidin-1-yl)methyl)-5-methylbenzamide] |
| < 0.3 µM | < 0.3 µM | Cc1cc(C(=O)Nc2cccc([C@H](C)Nc3cnc4cnn(C)c4n3)c2)cnc1N1CCSCC1 [Compound 260, (S)-5-methyl-N-(3-(1-((1-methyl-1H-pyrazolo[3,4-b]pyrazin-6-yl)amino)ethyl)phenyl)-6-thiomorpholinonicotinamide] |
| < 0.3 µM | < 0.3 µM | Cc1cncc(C(=O)Nc2cccc([C@H](C)Nc3cnc4cnn(C5CC5)c4n3)c2)c1 [Compound 177, (S)-N-(3-(1-((1-cyclopropyl-1H-pyrazolo[3,4-b]pyrazin-6-yl)amino)ethyl)phenyl)-5-methylnicotinamide] |
| < 0.3 µM | < 0.3 µM | Cc1cc(C(=O)Nc2cccc([C@H](C)Nc3cnc4cnn(C)c4n3)c2)ccc1CN1CCOCC1 [Compound 209, (S)-3-methyl-N-(3-(1-((1-methyl-1H-pyrazolo[3,4-b]pyrazin-6-yl)amino)ethyl)phenyl)-4-(morpholinomethyl) benzamide] |
| < 0.3 µM | < 0.3 µM | CCn1cc2ncc(N[C@@H](C)c3cccc(NC(=O)c4ccc(OC(F)(F)F)c(C)c4)c3)nc2n1 [Compound 452, (S)-N-(3-(1-((2-ethyl-2H-pyrazolo[3,4-b]pyrazin-6-yl)amino)ethyl)phenyl)-3-methyl-4-(trifluoromethoxy)benzamide] |
| < 0.3 µM | ≥ 1 µM | CCn1cc2ncc(N[C@@H](C)c3cc(NC(=O)Cc4ccc(C5CC5)cn4)ccc3C)nc2n1 [Compound 662, (S)-2-(5-cyclopropylpyridin-2-yl)-N-(3-(1-((2-ethyl-2H-pyrazolo[3,4-b]pyrazin-6-yl)amino)ethyl)-4-methylphenyl) acetamide] |
| 0.3 to 1 µM | ≥ 1 µM | CCn1cc2ncc(N[C@@H](C)c3cccc(NC(=O)c4ccc(CN5CC[C@H](O)C5)c(C)c4)c3)nc2n1 [Compound 471, N-(3-((S)-1-((2-ethyl-2H-pyrazolo[3,4-b]pyrazin-6-yl)amino)ethyl)phenyl)-4-(((S)-3-hydroxypyrrolidin-1-yl)methyl)-3-methylbenzamide] |
| < 0.3 µM | < 0.3 µM | Cc1cncc(C(=O)Nc2cccc([C@H](C)Nc3cnc4cn(CC5CC5)nc4n3)c2)c1 [Compound 275, (S)-N-(3-(1-((2-(cyclopropylmethyl)-2H-pyrazolo[3,4-b]pyrazin-6-yl)amino)ethyl)phenyl)-5-methylnicotinamide] |
| < 0.3 µM | < 0.3 µM | Cc1ncc(C(=O)Nc2cccc([C@H](C)Nc3cnc4cnn(C)c4n3)c2)cc1F [Compound 250, (S)-5-fluoro-6-methyl-N-(3-(1-((1-methyl-1H-pyrazolo[3,4-b]pyrazin-6-yl)amino)ethyl)phenyl)nicotinamide] |
| < 0.3 µM | < 0.3 µM | CCc1ccc(C(=O)Nc2cccc([C@H](C)Nc3cnc4cnn(C)c4n3)c2)cc1C [Compound 251, (S)-4-ethyl-3-methyl-N-(3-(1-((1-methyl-1H-pyrazolo[3,4-b]pyrazin-6-yl)amino)ethyl)phenyl)benzamide] |
| < 0.3 µM | < 0.3 µM | CCn1cc2ncc(N[C@@H](C)c3cc(NC(=O)c4ccc(C(F)(F)F)nc4)ccc3F)nc2n1 [Compound 10, (S)—N-(3-(1-((2-ethyl-2H-pyrazolo[3,4-b]pyrazin-6-yl)amino)ethyl)-4-fluorophenyl)-6-(trifluoromethyl)nicotinamide] |
| 0.3 to 1 µM | 0.3 to 1 µM | Cc1cncc(C(=O)Nc2cccc([C@H](C)Nc3cnc4cn(CC(C)C)nc4n3)c2)c1 [Compound 276, (S)-N-(3-(1-((2-isobutyl-2H-pyrazolo[3,4-b]pyrazin-6-yl)amino)ethyl)phenyl)-5-methylnicotinamide] |
| < 0.3 µM | ≥ 1 µM | CCn1cc2ncc(N[C@@H](C)c3cccc(NC(=O)Cc4cc(C)ccn4)c3)nc2n1 [Compound 678, (S)-N-(3-(1-((2-ethyl-2H-pyrazolo[3,4-b]pyrazin-6-yl)amino)ethyl)phenyl)-2-(4-methylpyridin-2-yl)acetamide] |
| < 0.3 µM | < 0.3 µM | CCn1cc2ncc(N[C@@H](C)c3cc(NC(=O)c4cc(C)c(CN5CCOCC5)c(F)c4)ccc3C)nc2n1 [Compound 526, (S)-N-(3-(1-((2-ethyl-2H-pyrazolo[3,4-b]pyrazin-6-yl)amino)ethyl)-4-methylphenyl)-3-fluoro-5-methyl-4-(morpholinomethyl)benzamide] |
| < 0.3 µM | < 0.3 µM | COc1ccc2ncc(N[C@@H](C)c3cccc(NC(=O)c4cncc(C)c4)c3)nc2c1 [Compound 32, (S)-N-(3-(1-((7-methoxyquinoxalin-2-yl)amino)ethyl)phenyl)-5-methylnicotinamide] |
| < 0.3 µM | < 0.3 µM | CCn1cc2ncc(N[C@@H](C)c3cccc(NC(=O)c4cnc(Br)c(C)c4)c3)nc2n1 [Compound 350, (S)-6-bromo-N-(3-(1-((2-ethyl-2H-pyrazolo[3,4-b]pyrazin-6-yl)amino)ethyl)phenyl)-5-methylnicotinamide] |
| < 0.3 µM | < 0.3 µM | C=Cc1ccc(C(=O)Nc2cccc([C@H](C)Nc3cnc4cnn(C)c4n3)c2)cc1C [Compound 246, (S)-3-methyl-N-(3-(1-((1-methyl-1H-pyrazolo[3,4-b]pyrazin-6-yl)amino)ethyl)phenyl)-4-vinylbenzamide] |
| < 0.3 µM | < 0.3 µM | Cc1cncc(C(=O)Nc2ccc(F)c([C@H](C)Nc3cnc4cnn(C)c4n3)c2)c1 [Compound 172] |
| < 0.3 µM | < 0.3 µM | CCc1cc(C(=O)Nc2cccc([C@H](C)Nc3cnc4cn(CC)nc4n3)c2)ccc1CN1CCN(C)CC1 [Compound 498, (S)-3-ethyl-N-(3-(1-((2-ethyl-2H-pyrazolo[3,4-b]pyrazin-6-yl)amino)ethyl)phenyl)-4-((4-methylpiperazin-1-yl)methyl) benzamide] |
| < 0.3 µM | < 0.3 µM | Cc1cncc(C(=O)Nc2cccc([C@H](C)Nc3cnc4cc(C)oc4c3)c2)c1 [Compound 22, (S)-5-methyl-N-(3-(1-((2-methylfuro[3,2-b]pyridin-6-yl)amino)ethyl)phenyl)nicotinamide] |
| < 0.3 µM | < 0.3 µM | CCc1cc(C(=O)Nc2cccc([C@H](C)Nc3cnc4cn(CC)nc4n3)c2)ccc1CN1CC2(COC2)C1 [Compound 499, (S)-4-((2-oxa-6-azaspiro[3,3]heptan-6-yl)methyl)-3-ethyl-N-(3-(1-((2-ethyl-2H-pyrazolo[3,4-b]pyrazin-6-yl)amino)ethyl)phenyl)benzamide] |
| < 0.3 µM | < 0.3 µM | CCn1cc2ncc(N[C@@H](C)c3cccc(NC(=O)c4ccc(C#N)c(C)c4)c3)nc2n1 [Compound 331, (S)-4-cyano-N-(3-(1-((2-ethyl-2H-pyrazolo[3,4-b]pyrazin-6-yl)amino)ethyl)phenyl)-3-methylbenzamide] |
| < 0.3 µM | < 0.3 µM | Cc1cc2ncc(N[C@@H](C)c3cc(NC(=O)c4ccc(OC(F)F)nc4)ccc3F)nc2s1 [Compound 611, (S)-6-(difluoromethoxy)-N-(4-fluoro-3-(1-((6-methylthieno[2,3-b]pyrazin-3-yl)amino)ethyl)phenyl) nicotinamide] |
| < 0.3 µM | < 0.3 µM | CCn1cc2ncc(N[C@@H](C)c3cccc(NC(=O)Cc4cc(F)cc(Cl)c4)c3)nc2n1 [Compound 641, (S)-2-(3-chloro-5-fluorophenyl)-N-(3-(1-((2-ethyl-2H-pyrazolo[3,4-b]pyrazin-6-yl)amino)ethyl)phenyl)acetamide] |
| < 0.3 µM | < 0.3 µM | Cc1cncc(C(=O)Nc2cccc([C@H](C)Nc3cnc4cc(F)ccc4n3)c2)c1 [Compound 40, (S)-N-(3-(1-((6-fluoroquinoxalin-2-yl)amino)ethyl)phenyl)-5-methylnicotinamide] |
| 0.3 to 1 µM | ≥ 1 µM | CCn1cc2ncc(N[C@@H](C)c3cccc(NC(=O)c4cnc(-c5cnn(C)c5)s4)c3)nc2n1 [Compound 342, (S)-N-(3-(1-((2-ethyl-2H-pyrazolo[3,4-b]pyrazin-6-yl)amino)ethyl)phenyl)-2-(1-methyl-1H-pyrazol-4-yl) thiazole-5-carboxamide] |
| 0.3 to 1 µM | ≥ 1 µM | CCn1cc2ncc(N[C@@H](C)c3cccc(NC(=O)Cc4ccc(C5CC5)cn4)c3)nc2n1 [Compound 682, (S)-2-(5-cyclopropylpyridin-2-yl)-N-(3-(1-((2-ethyl-2H-pyrazolo[3,4-b]pyrazin-6-yl)amino)ethyl)phenyl)acetamide] |
| < 0.3 µM | < 0.3 µM | Cc1cc(C(=O)Nc2cccc([C@H](C)Nc3cnc4cnn(C)c4n3)c2)ccc1C(=O)OCCN1CCOCC1 [Compound 264, 2-morpholinoethyl (S)-2-methyl-4-((3-(1-((1-methyl-1H-pyrazolo[3,4-b]pyrazin-6-yl)amino)ethyl)phenyl)carbamoyl) benzoate] |
